Data as given in patent US8835379B2, “Derivatives of CGRP” (Novo Nordisk A/S, priority 2009, dated 2014).

What was measured:
[1] = target: CGRP receptor (calcitonin receptor-like receptor (CRLR), receptor activity modifying protein-1 (RAMP1)) (Homo sapiens, UniProt O60894+Q16602); assay: CGRP-induced cAMP accumulation in CGRP receptor expressing cells (CHO, CRE luciferase reporter); assay type: cell-based
Method: Chinese hamster ovary (CHO) cells were stably transfected with calcitonin receptor-like receptor (CRLR), receptor activity modifying protein-1 (RAMP1) and CRE luciferase (cAMP responsive element for control of luciferase gene expression). Luciferase is a reporter-gene reporting accumulation of intracellular cAMP).
Cells were cultured in F12 media supplemented with GlutaMAX™ (Gibco cat no 31765-027), FBS (10%, Gibco 16140-071), Penicillin-streptomycin (1%, Lonza DE-17-602E), G418 (400 μg/ml, Gibco 10131-027), Blasticidine (10 μg/ml, Corning cat no 15205), Hygromycin (400 μg/ml, Calbiochem cat no 400052).
Cells were seeded in a 96 well plate (Packard #6005180), 20000 cells/well in 100 μl media on the day before experimentation. On the day of experimentation media was replaced by assay medium (Dulbecco's media w/o phenol red (Gibco cat no 11880-028) supplemented with 10% FBS (10%, Gibco 16140-071), Hepes (10 mM, Gibco cat no 15630), GlutaMAX™ (2 mM, Gibco cat no 35050), 50 μl/well.
Peptides were diluted in assay media before added to cells for stimulation, 50 μl/well.
Cells were incubated 5% CO2, 37° C. for 4 hours.
Assay medium and peptides were replaced by phosphate buffered saline (PBS, Gibco cat no 14040-091), 100 μl/well and LucLite™ (PerkinElmer, cat no 6076759), 100 μl/well were added. The plate was sealed before incubation for 30 min at room temperature (21° C.). Luciferase activity (luminescens, 7 s/well) was measured (TopCount®, NXT, Packard).
Dose-response curves were fitted by use of GraphPad Prism software and pEC50 values were calculated. Data were given as mean±SEM, n=2 and each analogue was tested twice.

[2] = Pharmacokinetic properties of CGRP and analogues, plasma level by CGRP ELISA; assay type: in vivo; settings: male, Sprague Dawley, rat, sc, SD rats, single s.c. injection, Analog alpha1 151 nmol/kg, Analogue beta1 231 nmol/kg
Method: Male Sprague Dawley rats (n=24) weighing approximately 250 g were used for the combined pharmacokinetic (T½, Cmaxetc.) and pharmacodynamic (GLP-1 release) study. The rats were divided in 4 groups with n=6 rats per group. The rats were treated with a single subcutaneous injection (1 ml/kg) of vehicle, alpha-CGRP (138 nmol/kg), Analogue beta1 (231 nmol/kg) or Analog alpha1 (151 nmol/kg). Blood (200 μl) was sampled from vena sublingualis from unanaesthetised rats pre-dose and at 0.5, 1, 3, 7 and 24 hours post dosing. Blood was collected in tubes containing EDTA. The samples were kept on ice and centrifuged. The plasma was kept at −20° C. until analysis for CGRP analog and total GLP-1.
A commercial available kit (Human CGRP ELISA, cat. #A05481, SPIbio) was used for monitoring the plasma levels of CGRP-analogues. Briefly, the assay was a two-sited enzyme-linked immuno sorbent assay (ELISA) using two antibodies against human CGRP. A monoclonal antibody was immobilized to the surface of micro plate wells. Five micro liter of plasma samples or calibrators were applied to the appropriate wells and incubated for 2 hours together with 100 μL buffer and 100 μL AChE-conjugated Fab′ fragment. […] The color intensity was determined by spectrophotometer at 405 nm. […] The lower limit of quantification of the modified CGRP assay was approximately 750 pM and the imprecision was (% CV)<10%.

[3] = CGRP-induced reduction in food intake by automatic food intake measurements (FeedWin); assay type: in vivo, Sprague Dawley (SD) rats; settings: SD rats, s.c., monitored for 48 hours, FIG. 4
From the text: Upon arrival male Sprague Dawley (SD) rats were housed two per cage with a dividing wall between them. They were housed at reversed diurnal rhythm and with environmental enrichment. The rats were acclimatized to reversed diurnal rhythm for at least 1 week before being transferred to the experimental system cages (single housed). They were acclimatized to the experimental system cages for an additional 5-6 days before start of the experiment. The rats had ad libitum access to food (Altromin 1324) and water during acclimatization periods.
One day before start of the study the rats were divided in three or four groups (n=5-8) based on body weight (250-300 g).
16 hours before start of the study the rats were fasted. Food was returned in connection with dosing. The rats received a single injection subcutaneously (s.c., 1 ml/kg) with vehicle or CGRP analogue. Intraperitoneally dosing (i.p., 1 ml/kg) was used in the first experiment of the al analogue. The effect of analogues on food and water consumption was examined in a “FeedWIN” system (Ellegaard Systems A/S, Faaborg, Denmark). The system contained 32 stations. In each station the continuous water and food consumption for a single rat was recorded.
A station consisted of a cage with metal lid and two scales placed on each side of the cage. […] Data was collected each 15 minutes and up to 48 hours and expressed as accumulated food intake (Mean±SEM).

Sequence of CGRP receptor (calcitonin receptor-like receptor (CRLR), receptor activity modifying protein-1 (RAMP1)) (Q16602 23-461, species assumed): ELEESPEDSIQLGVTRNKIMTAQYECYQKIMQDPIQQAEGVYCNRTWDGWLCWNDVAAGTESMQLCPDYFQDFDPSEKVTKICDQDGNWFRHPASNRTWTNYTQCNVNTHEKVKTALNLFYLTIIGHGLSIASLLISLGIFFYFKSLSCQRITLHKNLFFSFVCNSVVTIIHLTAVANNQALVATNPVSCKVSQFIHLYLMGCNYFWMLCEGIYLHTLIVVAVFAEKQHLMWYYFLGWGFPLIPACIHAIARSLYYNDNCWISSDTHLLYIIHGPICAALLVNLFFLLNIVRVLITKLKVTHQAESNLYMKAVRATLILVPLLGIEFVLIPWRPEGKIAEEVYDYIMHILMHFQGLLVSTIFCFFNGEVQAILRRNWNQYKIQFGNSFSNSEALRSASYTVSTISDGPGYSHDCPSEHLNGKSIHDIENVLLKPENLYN
Sequence of CGRP receptor (calcitonin receptor-like receptor (CRLR), receptor activity modifying protein-1 (RAMP1)) (O60894 27-148, species assumed): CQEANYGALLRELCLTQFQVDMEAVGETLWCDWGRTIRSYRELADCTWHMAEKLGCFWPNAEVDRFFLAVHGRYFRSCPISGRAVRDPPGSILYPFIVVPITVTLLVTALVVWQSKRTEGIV

CC(C)C[C@H](NC(=O)CNC(=O)[C@H](C)NC(=O)[C@H](CC(C)C)NC(=O)[C@H](CCCNC(=N)N)NC(=O)[C@H](Cc1c[nH]cn1)NC(=O)[C@@H](NC(=O)[C@@H](NC(=O)[C@@H]1CSSC[C@H](NC(=O)[C@H](CO)NC(=O)COCCOCCNC(=O)CC[C@H](NC(=O)CCCCCCCCCCCCCCCCC(=O)O)C(=O)O)C(=O)N[C@@H](CC(=O)O)C(=O)N[C@@H]([C@@H](C)O)C(=O)N[C@@H](C)C(=O)N[C@@H]([C@@H](C)O)C(=O)N1)C(C)C)[C@@H](C)O)C(=O)N[C@@H](CC(C)C)C(=O)N[C@@H](CO)C(=O)N[C@@H](CCCNC(=N)N)C(=O)N[C@@H](CO)C(=O)NCC(=O)NCC(=O)N[C@H](C(=O)N[C@H](C(=O)N[C@@H](CCCCN)C(=O)N[C@@H](CC(N)=O)C(=O)N[C@@H](CC(N)=O)C(=O)N[C@@H](Cc1ccccc1)C(=O)N[C@H](C(=O)N1CCC[C@H]1C(=O)N[C@H](C(=O)N[C@@H](CC(N)=O)C(=O)N[C@H](C(=O)NCC(=O)N[C@@H](CO)C(=O)N[C@@H](CCCCN)C(=O)N[C@@H](C)C(=O)N[C@@H](Cc1ccccc1)C(N)=O)C(C)C)[C@@H](C)O)C(C)C)C(C)C)C(C)C [Analogue alpha 1, N-alpha-[2-(2-{2-[(S)-4-Carboxy-4-(17-carboxyheptadecanoylamino)butyrylamino]ethoxy}ethoxy)acetyl][Ser1]alpha-human CGRP peptide]
EC50 [1]: 0.09 nM
Cmax [2]: 0.25 µM
half-life ([2]; read-out: T½): > 7 h

N-alpha-[2-(2-{2-[(S)-4-Carboxy-4-(17-carboxyheptadecanoylamino)butyrylamino]ethoxy}ethoxy)acetyl][Ser1]beta-human CGRP peptide [Analogue beta 1]
accumulated food intake [3]: Reduction in accumulated food intake
